Tests used:
[1] = Cmax in dog at 0.1 mg/kg, po; assay type: ADME, organism-based, Canis lupus familiaris; set-up: dose 0.1 mg/kg, route oral; conditions: in vivo
[2] = Metabolic stability assessed as intrinsic clearance in monkey liver microsome in presence of NADPH-generating system; assay type: ADME, Macaca mulatta; conditions: rhesus monkey, liver microsomes
[3] = target: Beta-3 adrenergic receptor (Canis lupus familiaris, UniProt O02662); experiment: Agonist activity at dog recombinant beta3 adrenergic receptor expressed in CHO cells assessed as cAMP accumulation by enzyme immuno assay; assay type: functional, cell-based
Chain of Beta-3 adrenergic receptor (Canis lupus familiaris, UniProt O02662) (O02662 whole entry): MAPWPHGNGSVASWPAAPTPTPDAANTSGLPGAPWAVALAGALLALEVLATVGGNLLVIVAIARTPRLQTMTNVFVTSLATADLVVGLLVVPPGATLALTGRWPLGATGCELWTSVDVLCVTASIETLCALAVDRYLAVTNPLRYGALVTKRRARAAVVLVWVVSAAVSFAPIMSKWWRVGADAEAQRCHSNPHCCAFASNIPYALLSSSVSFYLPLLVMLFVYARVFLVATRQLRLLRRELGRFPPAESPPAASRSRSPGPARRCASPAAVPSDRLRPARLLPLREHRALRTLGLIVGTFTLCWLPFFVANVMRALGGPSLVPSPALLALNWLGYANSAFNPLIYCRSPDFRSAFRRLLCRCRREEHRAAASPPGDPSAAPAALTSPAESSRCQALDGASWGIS

[4] = Cmax in rat at 1.0 mg/kg, po by cassette assay; assay type: ADME, organism-based; set-up: dose 1 mg/kg, route oral; conditions: in vivo
[5] = Terminal half life in Beagle dog at 0.1 mg/kg, iv by cassette assay; assay type: ADME, organism-based, Canis lupus familiaris; set-up: dose 0.1 mg/kg, route intravenous; conditions: in vivo, read-out: beta t1/2 (converted)
[6] = AUC (0 to 24 hrs) in monkey at 0.32 mg/kg, po by cassette assay; assay type: ADME, organism-based, Macaca mulatta; set-up: time < 24 hr, dose 0.32 mg/kg, route oral; conditions: rhesus monkey, plasma
[7] = Bioavailability in monkey at 0.32 mg/kg, po by cassette assay; assay type: ADME, organism-based, Macaca mulatta; conditions: rhesus monkey, in vivo
[8] = target: Beta-3 adrenergic receptor (Homo sapiens, UniProt P13945); experiment: Agonist activity at human recombinant beta3 adrenergic receptor expressed in CHO cells assessed as cAMP accumulation by enzyme immuno assay; assay type: functional, cell-based
Chain of Beta-3 adrenergic receptor (Homo sapiens, UniProt P13945) (P13945 whole entry): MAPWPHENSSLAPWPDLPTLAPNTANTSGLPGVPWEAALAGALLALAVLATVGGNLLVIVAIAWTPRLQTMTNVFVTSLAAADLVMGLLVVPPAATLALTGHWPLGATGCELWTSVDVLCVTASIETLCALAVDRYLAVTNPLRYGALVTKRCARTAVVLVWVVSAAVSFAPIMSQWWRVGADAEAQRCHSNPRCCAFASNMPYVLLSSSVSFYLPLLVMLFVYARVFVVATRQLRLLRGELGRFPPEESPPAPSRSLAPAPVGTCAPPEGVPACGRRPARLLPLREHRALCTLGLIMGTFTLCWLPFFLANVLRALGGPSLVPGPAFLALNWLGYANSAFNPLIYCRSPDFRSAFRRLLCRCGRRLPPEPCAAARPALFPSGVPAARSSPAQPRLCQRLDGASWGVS

[9] = Bioavailability in Beagle dog at 0.1 mg/kg, po by cassette assay; assay type: ADME, organism-based, Canis lupus familiaris; conditions: in vivo
[10] = AUC (0 to 2 hrs) in Beagle dog at 0.1 mg/kg, po by cassette assay; assay type: ADME, organism-based, Canis lupus familiaris; set-up: time < 2 hr, dose 0.1 mg/kg, route oral; conditions: plasma
[11] = target: Beta-1 adrenergic receptor (Homo sapiens, UniProt P08588); experiment: Agonist activity at human recombinant beta-1 adrenergic receptor expressed in CHO cells assessed as cAMP accumulation by enzyme immuno assay; assay type: functional, cell-based
Chain of Beta-1 adrenergic receptor (P08588 whole entry): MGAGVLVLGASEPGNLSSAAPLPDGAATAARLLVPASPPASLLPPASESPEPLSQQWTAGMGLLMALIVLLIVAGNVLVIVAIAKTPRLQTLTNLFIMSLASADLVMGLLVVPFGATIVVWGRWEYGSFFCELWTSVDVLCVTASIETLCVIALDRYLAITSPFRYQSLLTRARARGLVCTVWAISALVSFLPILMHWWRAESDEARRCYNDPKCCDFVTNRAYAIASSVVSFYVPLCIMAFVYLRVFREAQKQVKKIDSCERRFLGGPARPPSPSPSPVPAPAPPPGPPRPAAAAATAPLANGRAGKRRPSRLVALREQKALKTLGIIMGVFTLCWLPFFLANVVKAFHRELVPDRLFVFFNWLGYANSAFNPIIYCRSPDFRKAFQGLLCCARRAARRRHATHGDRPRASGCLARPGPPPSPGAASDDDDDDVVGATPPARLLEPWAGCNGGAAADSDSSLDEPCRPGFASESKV

[12] = AUC (0 to 24 hrs) in rat at 1.0 mg/kg, po by cassette assay; assay type: ADME, organism-based; set-up: time < 24 hr, dose 1 mg/kg, route oral; conditions: plasma
[13] = AUC (0 to 24 hrs) in Beagle dog at 0.1 mg/kg, iv by cassette assay; assay type: ADME, organism-based, Canis lupus familiaris; set-up: time < 24 hr, dose 0.1 mg/kg, route intravenous; conditions: plasma
[14] = Protein binding in Beagle dog serum; assay type: ADME, cell-free, Canis lupus familiaris; conditions: read-out: PPB (converted)
[15] = Total clearance in Beagle dog at 0.1 mg/kg, iv by cassette assay; assay type: ADME, organism-based, Canis lupus familiaris; set-up: dose 0.1 mg/kg, route intravenous; conditions: in vivo
[16] = Bioavailability in dog at 0.1 mg/kg, po; assay type: ADME, organism-based, Canis lupus familiaris; conditions: in vivo
[17] = Metabolic stability assessed as intrinsic clearance in rat liver microsome in presence of NADPH-generating system; assay type: ADME; conditions: liver microsomes
[18] = organism: Canis familiaris; experiment: cells; conditions: Canis lupus familiaris, 3 h
Description: Inhibition of carbachol-induced increase in intravesical pressure in intraduodenally dosed Beagle dog OAB model for 180 mins

[19] = Terminal half life in dog at 0.1 mg/kg, iv; assay type: ADME, organism-based, Canis lupus familiaris; set-up: dose 0.1 mg/kg, route intravenous; conditions: in vivo, read-out: beta t1/2 (converted)
[20] = target: Beta-2 adrenergic receptor (Homo sapiens, UniProt P07550); experiment: Agonist activity at human recombinant beta2 adrenergic receptor expressed in CHO cells assessed as cAMP accumulation by enzyme immuno assay; assay type: functional, cell-based
Chain of Beta-2 adrenergic receptor (P07550 whole entry): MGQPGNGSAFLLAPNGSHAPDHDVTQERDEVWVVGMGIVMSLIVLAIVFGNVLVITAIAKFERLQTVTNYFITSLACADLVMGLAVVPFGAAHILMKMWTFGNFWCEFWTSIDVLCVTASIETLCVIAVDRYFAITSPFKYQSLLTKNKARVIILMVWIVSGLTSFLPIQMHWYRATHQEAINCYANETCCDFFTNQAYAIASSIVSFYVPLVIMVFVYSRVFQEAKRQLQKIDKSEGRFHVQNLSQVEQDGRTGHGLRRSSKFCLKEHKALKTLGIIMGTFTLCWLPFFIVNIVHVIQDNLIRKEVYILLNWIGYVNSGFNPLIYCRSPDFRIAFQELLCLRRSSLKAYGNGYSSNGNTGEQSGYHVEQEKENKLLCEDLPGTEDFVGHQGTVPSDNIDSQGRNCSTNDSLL

[21] = AUC (0 to 24 hrs) in dog at 0.1 mg/kg, po; assay type: ADME, organism-based, Canis lupus familiaris; set-up: time < 24 hr, dose 0.1 mg/kg, route oral; conditions: plasma
[22] = Bioavailability in rat at 1.0 mg/kg, po by cassette assay; assay type: ADME, organism-based; conditions: in vivo
[23] = Total clearance in monkey at 0.32 mg/kg, iv by cassette assay; assay type: ADME, organism-based, Macaca mulatta; set-up: dose 0.32 mg/kg, route intravenous; conditions: rhesus monkey, in vivo
[24] = Metabolic stability assessed as intrinsic clearance in human liver microsome in presence of NADPH-generating system; assay type: ADME; conditions: liver microsomes
[25] = Volume of distribution at steady state in Beagle dog at 0.1 mg/kg, iv by cassette assay; assay type: ADME, organism-based, Canis lupus familiaris; set-up: dose 0.1 mg/kg, route intravenous; conditions: in vivo, read-out: Vdss
[26] = Metabolic stability assessed as intrinsic clearance in dog liver microsome in presence of NADPH-generating system; assay type: ADME, Canis lupus familiaris; conditions: liver microsomes
[27] = Total clearance in dog at 0.1 mg/kg, iv; assay type: ADME, organism-based, Canis lupus familiaris; set-up: dose 0.1 mg/kg, route intravenous; conditions: in vivo
[28] = Total clearance in rat at 1.0 mg/kg, iv by cassette assay; assay type: ADME, organism-based; set-up: dose 1 mg/kg, route intravenous; conditions: in vivo

CC(C)Oc1cc(-c2ccc(C[C@@H](C)NC[C@H](O)c3ccccc3)cc2)ccc1C(=O)O
Cmax [1]: 8.5 ng/mL | CLint scaled [2]: < 1 mL/min/kg | EC50 [3]: 0.19 nM | Cmax [4]: 116 ng/mL | half-life [5]: 930 min | AUC(0-t) at 24 h [6]: 1300 ng·h/mL | bioavailability [7]: 52.8% | EC50 [8]: 0.091 nM | bioavailability [9]: 41% | AUC(0-t) at 2 h [10]: 106 ng·h/mL | EC50 [11]: 86 nM | AUC(0-t) at 24 h [12]: 1640 ng·h/mL | AUC(0-t) at 24 h [13]: 260 ng·h/mL | fraction unbound [14]: 0.14 | clearance [15]: 6.5 mL/min/kg | bioavailability [16]: 79.6% | CLint scaled [17]: < 0.1 mL/min/kg | EC50 [18]: 2.5 nM | ED50 [18]: 3.5 µg/kg | half-life [19]: 858 min | EC50 [20]: > 10 µM | AUC(0-t) at 24 h [21]: 162 ng·h/mL | bioavailability [22]: 69.7% | clearance [23]: 1.8 mL/min/kg | CLint scaled [24]: < 0.1 mL/min/kg | Vd [25]: 5.4 L/kg | CLint scaled [26]: < 0.1 mL/min/kg | clearance [27]: 7.83 mL/min/kg | clearance [28]: 7.2 mL/min/kg
